ChEMBL document CHEMBL3785084, “Rational modification of the lead molecule: Enhancement in the anticancer and dihydrofolate reductase inhibitory activity” (Bioorg Med Chem Lett, 2016)
The source made the active and inactive calls. The calls are words filed in the database; no cut-off is given here.

Assays:
[1] = Cytotoxicity against human HOP62 cells assessed as cell growth at 10^-5 M after 48 hrs by sulforhodamine B assay; assay type: functional; settings: HOP-62, 48 h, read-out: Activity
[2] = Cytotoxicity against human COLO205 cells assessed as cell growth at 10^-5 M after 48 hrs by sulforhodamine B assay; assay type: functional; settings: COLO 205, 48 h, read-out: Activity
U-251 = assay: Cytotoxicity against human U251 cells assessed as cell growth at 10^-5 M after 48 hrs by sulforhodamine B assay; assay type: functional; settings: U-251, 48 h, read-out: Activity
SK-MEL-5 = assay: cells; settings: Homo sapiens, SK-MEL-5, 48 h; for CC50: read-out: LC50
MDA-MB-468 = assay: cells; settings: Homo sapiens, MDA-MB-468, 48 h; for CC50: read-out: LC50
NCI-H226 = assay: cells; settings: Homo sapiens, NCI-H226, 48 h; for CC50: read-out: LC50
cells = settings: Homo sapiens, LOX IMVI, 48 h; for CC50: read-out: LC50
[3] = Cytotoxicity against human BT549 cells after 48 hrs by sulforhodamine B assay; assay type: functional; settings: BT-549, 48 h
SK-MEL-2 = assay: Cytotoxicity against human SK-MEL-2 cells after 48 hrs by sulforhodamine B assay; assay type: functional; settings: SK-MEL-2, 48 h
[4] = biological target: Dihydrofolate reductase (Homo sapiens) (UniProt P00374)
[5] = biological target: Dihydrofolate reductase (Homo sapiens) (UniProt P00374); settings: 20 to 30 uM

Structure (SMILES)	GI50 (SK-MEL-5) [µM]	TGI (SK-MEL-5) [µM]	CC50 (SK-MEL-5) [µM]	GI50 (MDA-MB-468) [µM]	TGI (MDA-MB-468) [µM]	CC50 (MDA-MB-468) [µM]	GI50 (NCI-H226) [µM]	TGI (NCI-H226) [µM]	CC50 (NCI-H226) [µM]	GI50 (cells) [µM]	TGI (cells) [µM]	CC50 (cells) [µM]	further results
COc1cc(/C=C2\C(=O)Nc3ccccc32)cc(OC)c1O	2.9	10.7	33.1	1.5	7.7	63.1	17.7	> 100	> 100	4	16.2	44.6	growth at 10 µM [1]: 64.3%; growth at 10 µM [2]: 112%; growth at 10 µM (U-251): 47%
O=C1Nc2ccccc2/C1=C/c1cn(CC(O)Cn2cc(/C=C3\C(=O)Nc4ccccc43)c3ccccc32)c2ccccc12 (centres undefined)	1.9	3.8	7.3	2.03	3.7	6.9	1.6	3.5	7.5	0.32	1.3	4.1	GI50 [3]: 1.7 µM; TGI [3]: 3.6 µM; GI50 (SK-MEL-2): 1.7 µM; TGI (SK-MEL-2): 3.4 µM; CC50 (SK-MEL-2; read-out: LC50 (the source's name)): 6.9 µM; Ka [4]: 1.38 ×10⁵ /M; inhibition [5]: Active
